The text below walks through data of patent US9241939B2, “Combination of (a) a phosphoinositide 3-kinase inhibitor and (b) a modulator of RAS/RAF/MEK pathway” (Novartis AG, priority 2008, dated 2016).

The test system of experiment [1] is Akt; p70S6K or ERK in A549 cells. In words: Western-blotting of phosphorylated Akt, p70S6K and ERK. It counts as cell-based. Particulars: incubated alone, 30 min, PD03251901 250 nM. The protocol: FIG. 1: A549 cells were incubated either with compound A, PD03251901 (250 nM) alone or in combination for 30 min. Cells were then harvested and estimation of phosphorylated levels of either Akt; p70S6K or ERK done by regular Western-blotting.

Another experiment deals with A549 cells. Briefly: standard methylene blue proliferation assay. The experiment is classed as cell-based. The method, then:
The KRAS mutant NSCLC cell line was used in a standard methylene blue proliferation assay.
A549 cells were incubated with increasing amount of either compound A or PD0325901 (NVP-LBW624) alone or in combination, for 72 h and proliferation assessed with a standard methylene blue assay. The G150 were determined and CI quantified with the CalcuSyn software.

Another experiment relates to BN472 tumors. Briefly: BN472 tumor model. It counts as in vivo. Particulars: rat, weak and not significant. The protocol:
FIG. 2: Rat bearing BN472 tumors were treated with the indicated compound at the indicated dose and schedule, either alone or in combination. Evolution of tumor growth were followed by callipering throughout the course of the study. *, P<0.05 (Dunnett's).
FIG. 3: Rat bearing BN472 tumors were treated with the indicated compound at the indicated dose and schedule, either alone or in combination. Evolution of body weight were followed throughout the course of the study. *, P<0.05 (Dunnett's).
In the BN472 tumor model administration of compound A at a dose of 10 mg/kg (p.o., 1q24h) or the Raf inhibitor Raf265 (at a dose of 2.5 mg/kg, po, […]) produced a weak and not significant antitumor activity (expressed as T/C) of either 83 and 76. The combination of compound A (10 mg/kg) with RAF265, however, produced a strong and statistically significant antitumor activity with a T/C of 34% (FIG. 2).

Like-named read-outs stand apart in the source and are kept apart here.

Broadly, the GI50 is the concentration that inhibits growth by half. Regarding `Cn1c(=O)n(-c2ccc(C(C)(C)C#N)cc2)c2c3cc(-c4cnc5ccccc5c4)ccc3ncc21` [Compound A, 2-methyl-2-[4-(3-methyl-2-oxo-8-quinolin-3-yl-2,3-dihydro-imidazo[4,5-c]quinolin-1-yl)-phenyl]-propionitrile], the “block of respective downstream effectors (ERK and Akt)” value in experiment [1] is given as “do block their respective downstream effectors”. Besides, the concentration for 50% growth inhibition (GI50) in the experiment on A549 cells (A549 cells, 72 h, compound A and PD0325901 (NVP-LBW624) in combination, read-out: GI50 (in nM) in combination) turned out to be 4.46 nM; in the experiment on A549 cells (Homo sapiens, A549, 72 h, A549 cells (KRAS mutant NSCLC), 72 h, single agent, read-out: GI50 (in nM) alone), 9.41 nM; with A549 cells (Homo sapiens, A549, 72 h, A549 cells, 72 h, compound A and PD0325901 (NVP-LBW624) in combination, read-out: GI50 (in nM) in combination), 3.2 nM. Further, in the experiment with A549 cells (A549 cells, 72 h, compound A with PD0325901 (NVP-LBW624), CalcuSyn software), the “Combination Index (CI)” value was 0.718. Moreover, the “times less BEZ235 required for a similar decrease in proliferation” value in the experiment on A549 cells (in presence of PD0325901) is reported as 3 times. Further, in the experiment on BN472 tumors (compound A 10 mg/kg p.o. 1q24h alone), the “antitumor activity (expressed as T/C)” value was found to be 83.

Take `O=C(NOC[C@H](O)CO)c1ccc(F)c(F)c1Nc1ccc(I)cc1F` [PD0325901, reference compound]: in experiment [1], the “block of respective downstream effectors (ERK and Akt)” value was “do block their respective downstream effectors”. Also, the GI50 in the experiment on A549 cells (Homo sapiens, A549, 72 h, read-out: GI50 (in nM) alone) stood at 36.8 nM; in the experiment with A549 cells (Homo sapiens, A549, 72 h, read-out: GI50 (in nM) in combination) it was 11.5 nM.

With `Cn1c(Nc2ccc(C(F)(F)F)cc2)nc2cc(Oc3ccnc(-c4ncc(C(F)(F)F)[nH]4)c3)ccc21` [RAF265, reference compound], the “antitumor activity (expressed as T/C)” value with BN472 tumors (Raf265 2.5 mg/kg po q24h alone) is listed as 76.
